Molecules are shown by their SMILES.

Results on 3 compounds are retold here after patent publication US6362321B1, “Taxol resistance associated gene” (The General Hospital Corporation, priority 1998, dated 2002).

The test system of assay [1] is SKOV-3 TRAG-3 transfectants. Briefly: MTT assay of taxol sensitivity in TRAG-3 stable transfectants of SKOV-3. It counts as cell-based, Human. The note with it: SKOV-3 lipotransfected with pCI/TRAG-3, G418 selected; initial results. On the procedure:
(§1) All drugs were obtained from commercial sources. In vitro cytotoxicity was measured using a tetrazolium-based semi-automated calorimetric assay (i.e., MTT assay), as described (Carmichael et al., 1987, Cancer Res. 47:936-942). Briefly, 2×10^3 cells per well were cultured for 6 days with taxol or with taxol plus 30 μM verapamil. 20 μl of 5 mg/ml MTT solution was added to each well and incubated for 4 hours. A590 nm was measured after MTT formazan was solubilized with HCl-isopropanol solution. The absorbance values were normalized by assigning the value of the parent line in media to 1.0 and the value of the no-cell blank to 0. Experiments were performed in duplicate.
pCI-neo Mammalian Expression Vector (Promega) was used to overexpress TRAG-3 cDNA in SKOV-3 cells. Constructs carrying TRAG-3 were introduced into SKOV-3 cells by using the PERFECT™ Transfection Kit (Invitrogen) according to the manufacturer's protocol. The individual G418 (300 μg/ml) resistant clones were isolated and examined by Northern analysis for stable expression of TRAG-3. MTT assays were performed on the transfectants to evaluate the effect of TRAG-3 on taxol sensitivity.
To elucidate the contribution of TRAG-3 gene product(s) to taxol resistance, taxol-sensitive SKOV-3 cells were lipotransfected with the pCI/TRAG-3 expression vector. After G418 selection, several TRAG-3 stable transfectant subclones were obtained. […]

Assay [2] concerns SKOV-3TR cells. Briefly: MTT cytotoxicity assay, taxol-resistant SKOV-3TR versus parental SKOV-3. It counts as cell-based, Human. Here is the method:
as §1
A taxol-resistant SKOV-3 subline, SKOV-3TR, was established by exposing SKOV-3 cells to taxol at stepwise increases in concentration (from 0.00001 μM to 0.3 μM taxol). […] The growth rate of […], was similar to that of parental SKOV-3. Cell lines were analyzed for their degree of taxol resistance by MTT cytotoxicity assays. […] This drug resistance profile is consistent with a MDR1 phenotype.

As for `CC(=O)O[C@H]1C(=O)[C@@]2(C)[C@H]([C@H](OC(=O)c3ccccc3)[C@]3(O)C[C@H](OC(=O)[C@H](O)[C@@H](NC(=O)c4ccccc4)c4ccccc4)C(C)=C1C3(C)C)[C@]1(OC(C)=O)CO[C@@H]1C[C@@H]2O` [taxol], the “taxol resistance of TRAG-3 transfectants compared to the parent line” value in assay [1] is “no significant increase in taxol resistance”. The “degree of taxol resistance of SKOV-3TR relative to SKOV-3” value in assay [2] (MTT cytotoxicity, SKOV-3TR vs parental SKOV-3, 6 days culture) was “approximately 100 fold”.
Turning to `COc1ccc(CCN(C)CCCC(C#N)(c2ccc(OC)c(OC)c2)C(C)C)cc1OC` (stereo not shown) [verapamil], the “effect of verapamil on SKOV-3TR's resistance to taxol” value in assay [2] (taxol plus 30 μM verapamil, MTT assay, FIG. 1) was “reversed”.
Consider `CC[C@]1(O)C[C@H]2CN(CCc3c([nH]c4ccccc34)[C@@](C(=O)OC)(c3cc4c(cc3OC)N(C=O)[C@H]3[C@@](O)(C(=O)OC)[C@H](OC(C)=O)[C@]5(CC)C=CCN6CC[C@]43[C@@H]65)C2)C1` [vincristine], for which the “resistance of SKOV-3TR to other drugs (cross-resistance)” value in assay [2] (SKOV-3TR selected with taxol up to 0.3 μM) is given as “cross-resistance”.
